{
  "source": "patent US9999222B2",
  "about": "“Herbicidal combination comprising azines” (BASF SE, priority 2014, dated 2018)",
  "assay_in_all_cases": "Greenhouse test, pre-emergence treatment",
  "key": {"[1]": {"test_system": "GALAP", "assay_type": "in vivo, Galium aparine", "conditions": "Galium aparine, pre-emergence, 480 h, 500 g ai/ha, 20 DAT; read-out: observed % activity", "procedure,_shortened": "(§1)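 Seeds were sown in loamy sand with approximately 3.0% humus, then sprayed at once with actives suspended or emulsified in water. Pots were watered, hooded until rooting, held at 10-25° C. or 20-35° C. by species for 2 to 4 weeks, and scored 0 (no damage) to 100 (no emergence/complete destruction).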"}, "[2]": {"test_system": "IPOHE", "assay_type": "in vivo, Ipomoea hederacea", "conditions": "Ipomoea hederacea, 480 h, read-out: observed % activity 20 DAT", "procedure,_shortened": "as §1"}, "[3]": {"test_system": "KCHSC", "assay_type": "in vivo, Kochia scoparia", "conditions": "Bassia scoparia, 480 h, pre-emergence, read-out: observed % activity 20 DAT", "procedure,_shortened": "as §1"}, "[4]": {"test_system": "COMBE", "assay_type": "in vivo, Commelina benghalensis", "conditions": "Commelina benghalensis, 480 h, pre-emergence, read-out: observed % activity 20 DAT", "procedure,_shortened": "as §1"}, "[5]": {"test_system": "GERPU", "assay_type": "in vivo, Geranium pusillum", "conditions": "Geranium pusillum, pre-emergence, 480 h, pre-emergence, read-out: observed % activity 20 DAT", "procedure,_shortened": "as §1"}, "[6]": {"test_system": "AVEFA", "assay_type": "in vivo, Avena fatua", "conditions": "pre-emergence", "procedure,_shortened": "as §1"}, "[7]": {"test_system": "ALOMY", "assay_type": "in vivo, Alopecurus myosuroides", "conditions": "pre-emergence", "procedure,_shortened": "as §1"}, "[8]": {"test_system": "APESV", "assay_type": "in vivo, Apera spica-venti", "procedure,_shortened": "as §1"}, "[9]": {"test_system": "POLCO", "assay_type": "in vivo, Polygonum convolvulus", "conditions": "pre-emergence", "procedure,_shortened": "as §1"}, "[10]": {"test_system": "SETFA", "assay_type": "in vivo, Setaria faberi", "procedure,_shortened": "as §1"}, "[11]": {"test_system": "PHACA", "assay_type": "in vivo, Phalaris canariensis", "conditions": "Phalaris canariensis, pre-emergence, 480 h, pre-emergence, read-out: observed % activity 20 DAT", "procedure,_shortened": "as §1"}, "[12]": {"test_system": "EPHHL", "assay_type": "in vivo, Euphorbia heterophylla", "conditions": "Euphorbia heterophylla, pre-emergence, 480 h, pre-emergence, 1000 g ai/ha; read-out: observed % activity 20 DAT", "procedure,_shortened": "as §1"}, "[13]": {"test_system": "LOLMU", "assay_type": "in vivo, Lolium multiflorum", "conditions": "Lolium multiflorum, pre-emergence, 480 h, pre-emergence, read-out: observed % activity 20 DAT", "procedure,_shortened": "as §1"}, "[14]": {"test_system": "ECHCG", "assay_type": "in vivo, Echinocloa crus-galli", "conditions": "Echinochloa crus-galli, 480 h, read-out: observed % activity 20 DAT", "procedure,_shortened": "as §1"}, "[15]": {"test_system": "BRADC", "assay_type": "in vivo, Brachiaria decumbens", "conditions": "Urochloa decumbens, pre-emergence, 480 h", "procedure,_shortened": "as §1"}},
  "note": "Where “and” joins values, the source holds several entries; their conditions need not be identical. Equal values may be shown once. Read-outs that look alike come from different tables or passages of the source.",
  "data": [
    {"smiles": "CCC(CC)Nc1c([N+](=O)[O-])cc(C)c(C)c1[N+](=O)[O-]", "note": "[Pendimethalin, pendimethalin]", "values": [
      {"measurement": "inhibition at 500 g/ha", "setting": "[1]", "result": 30, "unit": "%"},
      {"measurement": "pest or weed control at 500 g/ha", "setting": "[2]; 500 g ai/ha", "result": 0, "unit": "%"},
      {"measurement": "pest or weed control at 1000 g/ha", "setting": "[2]; 1000 g ai/ha", "result": 0, "unit": "%"},
      {"measurement": "pest or weed control at 500 g/ha", "setting": "[3]; use rate 500 g ai/ha, 20 DAT", "result": 80, "unit": "%"},
      {"measurement": "inhibition at 125 g/ha", "setting": "[3]; use rate 125 g ai/ha", "result": 60, "unit": "%"},
      {"measurement": "pest or weed control at 500 g/ha", "setting": "[4]; 500 g ai/ha", "result": 10, "unit": "%"},
      {"measurement": "pest or weed control at 1000 g/ha", "setting": "[4]; 1000 g ai/ha", "result": 40, "unit": "%"},
      {"measurement": "pest or weed control at 125 g/ha", "setting": "[5]; use rate 125 g ai/ha, 20 DAT", "result": 90, "unit": "%"},
      {"measurement": "inhibition at 125 g/ha", "setting": "[5]; use rate 125 g ai/ha", "result": 70, "unit": "%"},
      {"measurement": "inhibition at 250 g/ha", "setting": "[5]; use rate 250 g ai/ha", "result": 90, "unit": "%"},
      {"measurement": "pest or weed control at 500 g/ha", "setting": "[5]; use rate 500 g ai/ha, 20 DAT", "result": 70, "unit": "%"},
      {"measurement": "inhibition at 500 g/ha", "setting": "[6]; Avena fatua, 480 h, 500 g ai/ha, 20 DAT, read-out: observed % activity", "result": 0, "unit": "%"},
      {"measurement": "observed % activity 20 DAT", "setting": "[6]; 250 g ai/ha", "result": 0, "unit": "%"},
      {"measurement": "inhibition at 250 g/ha", "setting": "[7]; Alopecurus myosuroides, 480 h, 250 g ai/ha, 20 DAT, read-out: observed % activity", "result": 60, "unit": "%"},
      {"measurement": "inhibition at 500 g/ha", "setting": "[7]; Alopecurus myosuroides, 480 h, 500 g ai/ha, 20 DAT, read-out: observed % activity", "result": 85, "unit": "%"},
      {"measurement": "pest or weed control at 250 g/ha", "setting": "[7]; Alopecurus myosuroides, 480 h, 250 g ai/ha, read-out: observed % activity 20 DAT", "result": 45, "unit": "%"},
      {"measurement": "pest or weed control at 500 g/ha", "setting": "[7]; Alopecurus myosuroides, 480 h, 500 g ai/ha, read-out: observed % activity 20 DAT", "result": 65, "unit": "%"},
      {"measurement": "pest or weed control at 1000 g/ha", "setting": "[7]; Alopecurus myosuroides, 480 h, 1000 g ai/ha, read-out: observed % activity 20 DAT", "result": 80, "unit": "%"},
      {"measurement": "inhibition at 125 g/ha", "setting": "[7]; Alopecurus myosuroides, 480 h, use rate 125 g ai/ha, read-out: observed % activity 20 DAT", "result": 55, "unit": "%"},
      {"measurement": "pest or weed control at 250 g/ha", "setting": "[7]; Alopecurus myosuroides, 480 h, use rate 250 g ai/ha, 20 DAT, read-out: observed % activity 20 DAT", "result": 15, "unit": "%"},
      {"measurement": "pest or weed control at 1000 g/ha", "setting": "[7]; Alopecurus myosuroides, 480 h, use rate 1000 g ai/ha, 20 DAT, read-out: observed % activity 20 DAT", "result": 95, "unit": "%"},
      {"measurement": "inhibition at 1000 g/ha", "setting": "[7]; Alopecurus myosuroides, 480 h, use rate 1000 g ai/ha, read-out: observed % activity 20 DAT", "result": 95, "unit": "%"},
      {"measurement": "observed % activity 20 DAT", "setting": "[7]; use rate 500 g ai/ha", "result": "65% and 90%"},
      {"measurement": "observed % activity 20 DAT", "setting": "[7]; use rate 1000 g ai/ha", "result": 75, "unit": "%"},
      {"measurement": "inhibition at 125 g/ha", "setting": "[8]; Apera spica-venti, 480 h, use rate 125 g ai/ha, read-out: observed % activity 20 DAT", "result": 85, "unit": "%"},
      {"measurement": "inhibition at 250 g/ha", "setting": "[8]; Apera spica-venti, 480 h, use rate 250 g ai/ha, read-out: observed % activity 20 DAT", "result": 75, "unit": "%"},
      {"measurement": "inhibition at 500 g/ha", "setting": "[8]; Apera spica-venti, 480 h, use rate 500 g ai/ha, read-out: observed % activity 20 DAT", "result": 95, "unit": "%"},
      {"measurement": "observed % activity 20 DAT", "setting": "[8]; use rate 125 g ai/ha", "result": 60, "unit": "%"},
      {"measurement": "observed % activity 20 DAT", "setting": "[8]; use rate 250 g ai/ha", "result": 75, "unit": "%"},
      {"measurement": "observed % activity 20 DAT", "setting": "[8]; use rate 500 g ai/ha", "result": 95, "unit": "%"},
      {"measurement": "pest or weed control at 500 g/ha", "setting": "[9]; Fallopia convolvulus, 480 h, use rate 500 g ai/ha, 20 DAT, read-out: observed % activity 20 DAT", "result": 60, "unit": "%"},
      {"measurement": "inhibition at 250 g/ha", "setting": "[9]; Fallopia convolvulus, 480 h, 250 g ai/ha, 20 DAT, read-out: observed % activity", "result": 50, "unit": "%"},
      {"measurement": "inhibition at 500 g/ha", "setting": "[9]; Fallopia convolvulus, 480 h, 500 g ai/ha, 20 DAT, read-out: observed % activity", "result": 60, "unit": "%"},
      {"measurement": "inhibition at 125 g/ha", "setting": "[9]; Fallopia convolvulus, 480 h, use rate 125 g ai/ha, read-out: observed % activity 20 DAT", "result": 0, "unit": "%"},
      {"measurement": "inhibition at 500 g/ha", "setting": "[9]; Fallopia convolvulus, 480 h, use rate 500 g ai/ha, read-out: observed % activity 20 DAT", "result": 60, "unit": "%"},
      {"measurement": "observed % activity 20 DAT", "setting": "[9]; use rate 500 g ai/ha", "result": 45, "unit": "%"},
      {"measurement": "inhibition at 125 g/ha", "setting": "[10]; Setaria faberi, 480 h, use rate 125 g ai/ha, read-out: observed % activity 20 DAT", "result": 98, "unit": "%"},
      {"measurement": "inhibition at 500 g/ha", "setting": "[10]; Setaria faberi, 480 h, use rate 500 g ai/ha, read-out: observed % activity 20 DAT", "result": 98, "unit": "%"},
      {"measurement": "observed % activity 20 DAT", "setting": "[10]; use rate 500 g ai/ha, 20 DAT", "result": 98, "unit": "%"},
      {"measurement": "pest or weed control at 250 g/ha", "setting": "[11]; 250 g ai/ha", "result": 0, "unit": "%"},
      {"measurement": "pest or weed control at 500 g/ha", "setting": "[11]; 500 g ai/ha", "result": 45, "unit": "%"},
      {"measurement": "inhibition at 125 g/ha", "setting": "[11]; use rate 125 g ai/ha", "result": 35, "unit": "%"},
      {"measurement": "pest or weed control at 250 g/ha", "setting": "[11]; use rate 250 g ai/ha, 20 DAT", "result": 55, "unit": "%"},
      {"measurement": "inhibition at 250 g/ha", "setting": "[11]; use rate 250 g ai/ha", "result": 55, "unit": "%"},
      {"measurement": "inhibition at 500 g/ha", "setting": "[11]; use rate 500 g ai/ha", "result": 65, "unit": "%"},
      {"measurement": "pest or weed control at 1000 g/ha", "setting": "[12]", "result": 55, "unit": "%"},
      {"measurement": "inhibition at 125 g/ha", "setting": "[13]; use rate 125 g ai/ha", "result": 0, "unit": "%"},
      {"measurement": "inhibition at 250 g/ha", "setting": "[13]; use rate 250 g ai/ha", "result": 0, "unit": "%"},
      {"measurement": "pest or weed control at 1000 g/ha", "setting": "[13]; use rate 1000 g ai/ha, 20 DAT", "result": 55, "unit": "%"},
      {"measurement": "inhibition at 1000 g/ha", "setting": "[13]; use rate 1000 g ai/ha", "result": 55, "unit": "%"},
      {"measurement": "inhibition at 125 g/ha", "setting": "[14]; use rate 125 g ai/ha", "result": 95, "unit": "%"},
      {"measurement": "pest or weed control at 250 g/ha", "setting": "[14]; use rate 250 g ai/ha, 20 DAT", "result": 98, "unit": "%"},
      {"measurement": "inhibition at 250 g/ha", "setting": "[14]; use rate 250 g ai/ha", "result": 98, "unit": "%"},
      {"measurement": "inhibition at 500 g/ha", "setting": "[15]; 500 g ai/ha, 20 DAT, read-out: observed % activity", "result": 75, "unit": "%"},
      {"measurement": "pest or weed control at 250 g/ha", "setting": "[15]; 250 g ai/ha, read-out: observed % activity 20 DAT", "result": 35, "unit": "%"},
      {"measurement": "pest or weed control at 500 g/ha", "setting": "[15]; 500 g ai/ha, read-out: observed % activity 20 DAT", "result": 55, "unit": "%"}
    ]}
  ]
}
